Laboratory results reported in ChEMBL document CHEMBL5512607, “Journey of Von Hippel-Lindau (VHL) E3 ligase in PROTACs design: From VHL ligands to VHL-based degraders” (Eur J Med Chem, 2024).
One block for each compound: values may come before it.

Assays:
[1] = target: T1, von Hippel-Lindau disease tumor suppressor/Bcl-2-like protein 1 (Homo sapiens, UniProt Q07817+P40337); experiment: PROTAC activity at VHL/BCL-XL in human MOLT-4 cells assessed as induction of BCL-XL degradation incubated for 16 hrs by immunoblot analysis; format: cell-based
Target sequence in this assay (Q07817 whole entry): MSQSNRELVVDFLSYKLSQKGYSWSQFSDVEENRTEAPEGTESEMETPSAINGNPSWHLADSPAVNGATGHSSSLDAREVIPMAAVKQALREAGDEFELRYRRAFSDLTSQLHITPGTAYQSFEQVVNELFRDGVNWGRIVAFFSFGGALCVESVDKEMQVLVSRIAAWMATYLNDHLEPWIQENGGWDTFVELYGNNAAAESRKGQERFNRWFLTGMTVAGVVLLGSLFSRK
Target sequence in this assay (P40337 whole entry): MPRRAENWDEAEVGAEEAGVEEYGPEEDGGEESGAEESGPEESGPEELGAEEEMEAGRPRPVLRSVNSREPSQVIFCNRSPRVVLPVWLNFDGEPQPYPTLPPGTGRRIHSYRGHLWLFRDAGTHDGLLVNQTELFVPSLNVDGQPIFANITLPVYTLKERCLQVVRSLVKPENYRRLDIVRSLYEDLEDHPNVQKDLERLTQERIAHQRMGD

[2] = target: T1, von Hippel-Lindau disease tumor suppressor/Bcl-2-like protein 1; experiment: Protac activity at VHL/BCL-XL in human MOLT-4 cells assessed as induction of protein degradation by measuring maximal degradation relative to control; format: cell-based
Target sequence in this assay (P40337 whole entry, looked up): as the sequence (P40337 whole entry) above
Target sequence in this assay (Q07817 whole entry, looked up): as the sequence (Q07817 whole entry) above

[3] = tested on: MOLT-4; experiment: Anticancer activity against human MOLT-4 cells assessed as reduction in cell viability incubated for 72 hrs by MTS assay; format: functional, cell-based; conditions: MOLT-4, 72 h
[4] = target: T2, von Hippel-Lindau disease tumor suppressor/Epidermal growth factor receptor (Homo sapiens, UniProt P00533+P40337); experiment: PROTAC activity at VHL/EGFR del19 mutant in human HCC827 cells assessed as protein degradation incubated for 24 hrs by immunoblot analysis; format: cell-based
T2 sequence (P00533 whole entry, looked up, stated change not applied): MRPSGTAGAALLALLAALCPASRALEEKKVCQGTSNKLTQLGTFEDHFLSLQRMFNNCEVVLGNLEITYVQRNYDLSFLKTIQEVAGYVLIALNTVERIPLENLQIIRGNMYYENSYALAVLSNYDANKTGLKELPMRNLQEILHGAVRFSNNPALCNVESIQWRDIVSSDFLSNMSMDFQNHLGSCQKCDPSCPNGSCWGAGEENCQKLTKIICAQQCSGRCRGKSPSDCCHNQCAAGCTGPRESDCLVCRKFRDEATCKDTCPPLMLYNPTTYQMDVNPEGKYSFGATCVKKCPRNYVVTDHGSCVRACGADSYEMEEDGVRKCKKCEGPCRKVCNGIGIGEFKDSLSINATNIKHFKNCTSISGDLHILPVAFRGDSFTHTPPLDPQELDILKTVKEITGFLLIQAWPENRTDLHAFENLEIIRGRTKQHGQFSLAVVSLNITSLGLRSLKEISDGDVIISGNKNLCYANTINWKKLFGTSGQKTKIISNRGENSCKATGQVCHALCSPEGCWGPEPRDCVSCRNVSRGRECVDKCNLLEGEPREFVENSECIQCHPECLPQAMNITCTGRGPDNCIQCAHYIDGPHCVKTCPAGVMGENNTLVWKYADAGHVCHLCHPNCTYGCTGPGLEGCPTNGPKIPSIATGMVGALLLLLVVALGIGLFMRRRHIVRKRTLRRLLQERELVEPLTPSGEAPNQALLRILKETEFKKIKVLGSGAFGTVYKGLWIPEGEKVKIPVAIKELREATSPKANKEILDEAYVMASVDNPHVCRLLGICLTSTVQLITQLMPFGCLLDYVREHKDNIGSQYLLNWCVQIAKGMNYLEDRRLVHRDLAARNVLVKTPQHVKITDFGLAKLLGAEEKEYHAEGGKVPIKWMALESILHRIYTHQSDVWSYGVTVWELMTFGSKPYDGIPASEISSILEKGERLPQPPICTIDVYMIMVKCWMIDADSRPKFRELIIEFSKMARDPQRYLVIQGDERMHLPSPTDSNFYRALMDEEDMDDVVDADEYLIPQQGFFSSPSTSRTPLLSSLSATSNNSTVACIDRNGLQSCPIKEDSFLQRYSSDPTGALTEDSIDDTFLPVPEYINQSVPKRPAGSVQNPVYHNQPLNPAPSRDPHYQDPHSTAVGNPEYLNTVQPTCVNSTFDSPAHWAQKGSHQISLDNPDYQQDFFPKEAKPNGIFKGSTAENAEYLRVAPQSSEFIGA
T2 sequence (P40337 whole entry, looked up, stated change not applied): as the sequence (P40337 whole entry) above

[5] = target: T2, von Hippel-Lindau disease tumor suppressor/Epidermal growth factor receptor; experiment: PROTAC activity at VHL/EGFR del19 mutant in human NCI-H3255 cells assessed as protein degradation incubated for 24 hrs by immunoblot analysis; format: cell-based
[6] = tested on: von Hippel-Lindau disease tumor suppressor/Epidermal growth factor receptor (Homo sapiens), P00533+P40337 [UNDEFINED MUTATION]; experiment: PROTAC activity at VHL/EGFR del19 mutant in human HCC827 cells assessed as maximal degradation incubated for 24 hrs by immunoblot analysis relative to control; format: cell-based
Chain of von Hippel-Lindau disease tumor suppressor/Epidermal growth factor receptor (Homo sapiens), P00533+P40337 [UNDEFINED MUTATION] (P00533 whole entry, looked up, stated change not applied): as the sequence (P00533 whole entry, looked up, stated change not applied) above
Chain of von Hippel-Lindau disease tumor suppressor/Epidermal growth factor receptor (Homo sapiens), P00533+P40337 [UNDEFINED MUTATION] (P40337 whole entry, looked up, stated change not applied): as the sequence (P40337 whole entry) above

[7] = tested on: von Hippel-Lindau disease tumor suppressor/Epidermal growth factor receptor (Homo sapiens), P00533+P40337 [UNDEFINED MUTATION]; experiment: PROTAC activity at VHL/EGFR del19 mutant in human NCI-H3255 cells assessed as maximal degradation incubated for 24 hrs by immunoblot analysis relative to control; format: cell-based
[8] = target: T1, von Hippel-Lindau disease tumor suppressor/Bcl-2-like protein 1; experiment: PROTAC activity at VHL/BCL-XL in human THP-1 cells assessed as induction of BCL-XL degradation incubated for 16 hrs by immunoblot analysis; format: cell-based
Target sequence in this assay (Q07817 whole entry): as the sequence (Q07817 whole entry) above
Target sequence in this assay (P40337 whole entry): as the sequence (P40337 whole entry) above

[9] = target: T1, von Hippel-Lindau disease tumor suppressor/Bcl-2-like protein 1; experiment: PROTAC activity at VHL/BCL-XL in human THP-1 cells assessed as induction of protein degradation by measuring maximal degradation relative to control; format: cell-based
Target sequence in this assay (P40337 whole entry, looked up): as the sequence (P40337 whole entry) above
Target sequence in this assay (Q07817 whole entry, looked up): as the sequence (Q07817 whole entry) above

[10] = tested on: MOLT-4; experiment: Antiproliferative activity against human MOLT-4 cells assessed as cell growth inhibition incubated for 72 hrs by Cell Titer-Glo Luminescent assay; format: functional, cell-based; conditions: MOLT-4, 72 h
[11] = target: Bcl-2-like protein 1 (Homo sapiens, UniProt Q07817); experiment: Induction of Bcl-xl degradation in HEK293T cells incubated for 16 hrs by immunoblotting analysis; format: cell-based
Chain of Bcl-2-like protein 1 (Q07817 whole entry): as above

[12] = target: Apoptosis regulator Bcl-2 (Homo sapiens, UniProt P10415); experiment: Induction of Bcl2 degradation in HEK293T cells incubated for 16 hrs by immunoblotting analysis; format: cell-based
Chain of Apoptosis regulator Bcl-2 (P10415 whole entry): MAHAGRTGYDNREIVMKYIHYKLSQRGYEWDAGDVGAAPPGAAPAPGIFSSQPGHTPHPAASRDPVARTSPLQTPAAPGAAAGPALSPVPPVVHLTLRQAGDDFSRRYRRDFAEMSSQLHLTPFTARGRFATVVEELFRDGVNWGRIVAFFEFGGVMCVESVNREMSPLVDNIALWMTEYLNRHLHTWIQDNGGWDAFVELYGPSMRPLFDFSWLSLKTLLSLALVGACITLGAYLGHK

DC50 [1]: 53 nM
Emax [2]: 90.8%
EC50 [3]: 52 nM
Compound: Cc1ncsc1-c1ccc([C@H](C)NC(=O)[C@H]2C[C@H](O)CN2C(=O)[C@@H](NC(=O)CCCCCC(=O)N2CCN(CC[C@H](CSc3ccccc3)Nc3ccc(S(=O)(=O)NC(=O)c4ccc(N5CCN(CC6=C(c7ccc(Cl)cc7)CCC(C)(C)C6)CC5)cc4)cc3S(=O)(=O)C(F)(F)F)CC2)C(C)(C)C)cc1

Compound: COc1cc2ncnc(Nc3ccc(F)c(Cl)c3)c2cc1OCCCCCOCCOCCC(=O)N[C@@H](C(=O)N1C[C@@H](O)C[C@@H]1C(=O)NCc1ccc(-c2scnc2C)cc1)C(C)(C)C
DC50 [4]: 11.7 nM
DC50 [5]: 22.3 nM
Emax [6]: 98.9%
Emax [7]: 96.6%

DC50 [8]: 4.8 nM
Emax [9]: 76%
EC50 [10]: 578 nM
Compound: Cc1ncsc1-c1ccc(CNC(=O)[C@@H]2C[C@@H](O)CN2C(=O)[C@H](NC(=O)CCOCCOCCOCCOCCOCCOCC#Cc2ccc(OCCCc3sc(N4CCc5cccc(C(=O)Nc6nc7ccccc7s6)c5C4)nc3C(=O)O)cc2)C(C)(C)C)cc1

DC50 [11]: 6 nM
DC50 [12]: 48 nM
Compound: Cc1ncsc1-c1ccc([C@H](C)NC(=O)[C@@H]2C[C@@H](O)CN2C(=O)[C@H](NC(=O)CCCCCCC(=O)N2CCN(C[C@]3(C)CCC(c4ccc(Cl)cc4)=C(CN4CCN(c5ccc(C(=O)NS(=O)(=O)c6ccc(N[C@H](CCN7CCOCC7)CSc7ccccc7)c(S(=O)(=O)C(F)(F)F)c6)cc5)CC4)C3)CC2)C(C)(C)C)cc1
